IC50 and Ki data for twelve compounds are collected here from ChEMBL document CHEMBL5214951, “Isatoic anhydrides as novel inhibitors of monoamine oxidase” (Bioorg Med Chem, 2022).

In one assay the target is D-amino-acid oxidase (Sus scrofa, UniProt P00371). The assay can be described thus: Inhibition of porcine kidney DAAO using D-serine as substrate by Amplex red and horseradish peroxidase fluorescence assay.
The target of assay [1] is T1, Amine oxidase [flavin-containing] B (Homo sapiens, UniProt P27338).
T1 sequence (P27338 whole entry): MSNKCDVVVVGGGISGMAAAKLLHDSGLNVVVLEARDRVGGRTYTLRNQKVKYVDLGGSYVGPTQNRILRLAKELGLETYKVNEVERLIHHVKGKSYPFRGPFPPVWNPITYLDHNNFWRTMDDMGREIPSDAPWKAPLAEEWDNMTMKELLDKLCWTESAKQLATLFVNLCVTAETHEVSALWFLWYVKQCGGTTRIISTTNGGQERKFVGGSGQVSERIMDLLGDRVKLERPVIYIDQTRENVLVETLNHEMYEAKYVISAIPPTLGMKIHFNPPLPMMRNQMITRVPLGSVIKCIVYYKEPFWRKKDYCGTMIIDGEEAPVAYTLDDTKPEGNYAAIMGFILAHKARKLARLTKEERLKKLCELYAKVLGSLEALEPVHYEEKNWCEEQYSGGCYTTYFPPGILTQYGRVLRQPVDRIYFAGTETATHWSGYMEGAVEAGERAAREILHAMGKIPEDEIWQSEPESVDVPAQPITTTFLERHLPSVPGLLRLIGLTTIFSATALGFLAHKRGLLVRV
The assay can be described thus: Competitive inhibition of human recombinant MAO-B assessed as inhibitory constant using varying levels of kynuramine as substrate by Lineweaver-burk plot analysis.

Assay [2] has as its target T2, Amine oxidase [flavin-containing] A (Homo sapiens, UniProt P21397).
T2 sequence (P21397 whole entry): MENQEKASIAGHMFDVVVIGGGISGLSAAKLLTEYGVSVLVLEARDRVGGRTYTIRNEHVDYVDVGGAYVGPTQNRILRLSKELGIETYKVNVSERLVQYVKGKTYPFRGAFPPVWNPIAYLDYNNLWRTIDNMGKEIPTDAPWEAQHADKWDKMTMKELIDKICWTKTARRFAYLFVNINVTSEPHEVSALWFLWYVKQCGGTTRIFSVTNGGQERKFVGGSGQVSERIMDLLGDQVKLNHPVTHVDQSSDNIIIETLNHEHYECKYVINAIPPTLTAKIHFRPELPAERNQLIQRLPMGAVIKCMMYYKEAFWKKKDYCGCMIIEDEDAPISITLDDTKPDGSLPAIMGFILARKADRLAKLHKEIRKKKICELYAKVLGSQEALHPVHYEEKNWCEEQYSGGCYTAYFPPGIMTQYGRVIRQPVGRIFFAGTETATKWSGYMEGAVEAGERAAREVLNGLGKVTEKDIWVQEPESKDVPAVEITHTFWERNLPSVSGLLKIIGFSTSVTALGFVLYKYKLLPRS

For assay [3], the target named is T2, Amine oxidase [flavin-containing] A. The assay can be described thus: Competitive inhibition of human recombinant MAO-A assessed as inhibitory constant using varying levels of kynuramine as substrate by Lineweaver-burk plot analysis.
Assay [4] addresses T1, Amine oxidase [flavin-containing] B.
For a further assay, the target named is Cholinesterase (Equus caballus, UniProt P81908).
Chain of Cholinesterase (P81908 whole entry): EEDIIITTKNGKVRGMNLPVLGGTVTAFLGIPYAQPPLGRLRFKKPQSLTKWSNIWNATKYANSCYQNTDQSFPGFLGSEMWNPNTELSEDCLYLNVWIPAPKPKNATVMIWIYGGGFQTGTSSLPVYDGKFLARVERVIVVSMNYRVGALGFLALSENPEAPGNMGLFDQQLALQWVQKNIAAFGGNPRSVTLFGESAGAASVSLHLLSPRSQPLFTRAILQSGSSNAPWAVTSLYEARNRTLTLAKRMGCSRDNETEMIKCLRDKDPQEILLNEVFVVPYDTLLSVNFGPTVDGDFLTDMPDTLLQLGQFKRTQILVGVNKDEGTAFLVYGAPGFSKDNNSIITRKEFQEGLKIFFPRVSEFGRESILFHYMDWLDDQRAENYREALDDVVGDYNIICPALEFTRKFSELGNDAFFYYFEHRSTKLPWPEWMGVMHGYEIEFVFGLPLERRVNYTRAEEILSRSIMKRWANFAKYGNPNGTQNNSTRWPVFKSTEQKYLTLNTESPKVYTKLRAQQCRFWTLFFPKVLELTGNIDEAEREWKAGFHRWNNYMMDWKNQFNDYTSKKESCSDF
The next assay has as its target Acetylcholinesterase (Homo sapiens, UniProt P22303). The assay can be described thus: Inhibition of human recombinant AChE using S-acetylthiocholine as substrate by DTNB reagent based spectrophotometric analysis.

Chain of Acetylcholinesterase (P22303 whole entry): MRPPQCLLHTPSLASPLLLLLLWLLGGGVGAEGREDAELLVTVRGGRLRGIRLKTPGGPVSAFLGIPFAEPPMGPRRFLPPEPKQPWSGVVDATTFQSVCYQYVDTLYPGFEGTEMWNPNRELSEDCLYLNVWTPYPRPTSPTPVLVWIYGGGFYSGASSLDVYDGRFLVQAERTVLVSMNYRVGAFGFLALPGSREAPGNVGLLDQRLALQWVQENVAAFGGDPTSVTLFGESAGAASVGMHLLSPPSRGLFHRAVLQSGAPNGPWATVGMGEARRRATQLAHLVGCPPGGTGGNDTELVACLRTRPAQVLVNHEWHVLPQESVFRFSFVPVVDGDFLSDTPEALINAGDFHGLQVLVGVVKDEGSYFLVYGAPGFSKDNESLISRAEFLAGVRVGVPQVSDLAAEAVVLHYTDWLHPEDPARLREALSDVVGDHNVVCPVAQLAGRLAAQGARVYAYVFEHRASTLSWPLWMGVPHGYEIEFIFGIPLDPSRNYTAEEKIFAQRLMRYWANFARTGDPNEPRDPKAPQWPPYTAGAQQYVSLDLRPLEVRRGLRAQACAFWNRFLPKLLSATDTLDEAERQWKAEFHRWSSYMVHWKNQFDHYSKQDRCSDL
Chain of D-amino-acid oxidase (P00371 whole entry): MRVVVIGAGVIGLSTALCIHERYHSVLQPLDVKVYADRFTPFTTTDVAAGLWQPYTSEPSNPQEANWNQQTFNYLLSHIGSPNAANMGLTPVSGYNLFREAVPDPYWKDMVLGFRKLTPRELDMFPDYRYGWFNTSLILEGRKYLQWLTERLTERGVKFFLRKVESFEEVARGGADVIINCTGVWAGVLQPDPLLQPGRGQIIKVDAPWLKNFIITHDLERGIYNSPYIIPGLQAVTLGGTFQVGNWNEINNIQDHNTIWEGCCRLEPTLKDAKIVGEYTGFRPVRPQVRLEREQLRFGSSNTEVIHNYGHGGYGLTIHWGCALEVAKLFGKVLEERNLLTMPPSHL

Broadly, the IC50 is the concentration needed to halve the response being measured. On D-amino-acid oxidase, `Cc1cc(C(=O)O)n[nH]1` showed an IC50 of 933 nM.
The term Ki denotes a dissociation constant, usually derived from enzyme kinetics or from competition with a known ligand. With `O=c1[nH]c2ccc(OCc3ccccc3)cc2c(=O)o1`, the Ki worked out at 4.3 nM in assay [1] and 52 nM in assay [3]. In addition, the values for the IC50 in assay [2] and in assay [4] were 132 nM and 73 nM, respectively.
On to `O=c1[nH]c2ccc(OCc3ccc4ccccc4c3)cc2c(=O)o1`, for which the IC50 is 16600 nM against Cholinesterase, 65 nM in assay [2] and 20 nM in assay [4].
Taken in the same sequence, the figures for `O=c1[nH]c2ccc(OCc3ccc(Br)cc3)cc2c(=O)o1` were 19800 nM, 9.5 nM and 6.9 nM.
Regarding `O=c1[nH]c2ccc(OCc3ccc(F)cc3)cc2c(=O)o1`, the results for the IC50 (at Acetylcholinesterase; in assay [2]; in assay [4]) were 76200 nM, 122 nM and 15 nM, respectively.
In the case of `COc1cccc(COc2ccc3[nH]c(=O)oc(=O)c3c2)c1`, the figures for the IC50 in assay [2] and in assay [4] were 94 nM and 18 nM, respectively.
For the compound `CC(C)c1ccc(COc2ccc3[nH]c(=O)oc(=O)c3c2)cc1`, the IC50 is 55000 nM on Acetylcholinesterase, 21100 nM at Cholinesterase, 10 nM in assay [2] and 76 nM in assay [4].
Take `O=c1[nH]c2ccc(OCc3cccc(Br)c3)cc2c(=O)o1`: the IC50 in assay [2] was determined as 59 nM; in assay [4], 11 nM.
In the case of `Cc1ccc(COc2ccc3[nH]c(=O)oc(=O)c3c2)cc1`, the IC50 is 19100 nM at Cholinesterase, 61 nM in assay [2] and 6.4 nM in assay [4].
As to `O=c1[nH]c2ccc(OCc3cccc(I)c3)cc2c(=O)o1`, the IC50 in assay [2] turned out to be 43 nM; in assay [4], 14 nM.
For `O=c1[nH]c2ccc(OCc3cccc(C(F)(F)F)c3)cc2c(=O)o1` the same measures were 83 nM and 4.7 nM.
Turning to `COc1cc(/C=C/C(=O)CC(=O)/C=C/c2ccc(O)c(OC)c2)ccc1O` [CURCUMIN], on D-amino-acid oxidase, the IC50 was 1070 nM.
